Measured values taken from patent US6084072A, “Purified lectin and methods of use” (The Regents of the University of Michigan, priority 1993, dated 2000).
Values joined by “and” are separate entries in the source; they are usually repeats but may differ in a detail not shown here. Identical values can stand only once. Like-named read-outs stand apart in the source and are kept apart here.

Columns and labels:
[1] = system: asialo-ovine submaxillary mucin; assay: Metal analysis of amaranthin activity in the precipitation assay; type: binding
Experimental: For metal analysis two methods were used to determine if metals were necessary for amaranthin activity. 1) Amaranthin was dialyzed against 1 N acetic acid at 4° C. overnight, and then against 20 mM phosphate buffer at pH 7.2. The acid dialyzed amaranthin was then used in the standard precipitation assay with asialo-ovine submaxillary mucin and the indicated additions. 2) After dialysis into metal free buffer, amaranthin was incubated for 1 hour at room temperature in the presence of the indicated ethylene diamine tetraacetate (EDTA) concentrations. Asialo-ovine submaxillary mucin was then added, and the precipitation assay was carried out as usual. All glassware was acid-washed and buffers were passed over a Chelex 100 column, a trademarked, column commercially available from Bio-Rad to remove divalent metal ions.

[2] = system: human red blood cells (A, B, and O); assay: Hemagglutination; type: cell-based
Experimental: In the hemagglutination procedure, red blood cells were washed and resuspended to make a 2% suspension in phosphate buffered saline. The lectin solution was serially diluted in microliter plates followed by the addition of the 2% red blood cell suspension. Hemagglutination was observed after 1 hour at room temperature. One hemagglutination unit (HU) is defined as the minimum amount of amaranthin to completely agglutinate cells and is equivalent to a lectin concentration of 2 μg/ml.

[3] = system: well differentiated colonic adenocarcinoma sections; assay: Inhibition of lectin binding with hapten sugars on tissue sections; parameters: species or system human; key to Labeling score: 4^+: Maximum labeling of the brown reaction product; 0: No staining of the slide compared to control sections; 1^+: trace or weak staining definitely not seen on control slides; 2+3^+: stronger staining, but definitely less than maximal
Experimental: Four micron paraffin embedded tissue sections attached to glass slides were deparaffinized by serial incubations in xylene (twice), absolute ethanol (thrice), 95% ethanol, 70% ethanol, water and finally equilibrated in phosphate buffered saline (PBS), pH 7.0, containing 0.1% bovine serum albumin (BSA) commercially available from Sigma Corp of St. Louis, Mo. The slides were blotted dry adjacent to the tissue sections, and biotinylated lectin was added at a concentration of 10 μg/ml (for ACA) and 20 μg/ml (for PNA) in a quantity sufficient to completely cover the hydrated tissue (100-2001 μl). The lectin was rinsed off after a 30 minute incubation by eight 2-second dips into phosphate buffered saline. The slides were again blotted, and the tissue covered with Streptavidin-horseradish peroxidase (HRP) obtained from Zymed Laboratories, San Francisco, Calif. at a concentration of 10 μg/ml for 30 minutes. The slides were rinsed as mentioned above, and the pigmented reaction product developed by the addition of a freshly prepared chromogen reagent solution prepared within two hours of use as follows.
3,3'-diaminobenzidine was aliqotted at 5 mg/mL in 0.01 M (Tris) tris hydroxy methyl amino methane saline, pH 7.5 and frozen at -70° C. until use. For use, the aliquot was thawed, diluted 1:10 in 0.01 M (Tris) tris hydroxy methyl amino methane saline pH 7.5, and 3.3 μL of 30% H2 O2 were added to each 5 ml. This solution was allowed to stand for 10 min, and 100-200 μl was applied to the tissue sections that had been incubated earlier with biotinylated lectin and Streptavidin-HRP. After 10 min, the slides were rinsed with albumin-free phosphate buffered saline. The tissues were briefly counterstained for 50 seconds with Gill's #3 hematoxylin bovine serum albumin, commercially available from Sigma Corp. of St. Louis, Mo., rinsed with water, and serially dehydrated using graded alcohols and xylene, and embedded in Permount, a trademarked, commercially available product of Allied-Fischer Scientific of Livonia, Mich.
The specificity of lectin binding was evaluated by preincubating the biotinylated lectin with inhibitory hapten sugar for 1-2 hours prior to its application to the tissue. In each instance, the reagents were prepared so that the final concentration of lectin on the slide was either 10 or 20 μg/ml and the hapten sugar was as indicated in the results. Galactose, lactose, GalNAc, and galactose-β1-3N-acetylgalactosamine-α-O-benzyl (T-antigen-α-O-benzyl) were also obtained from Sigma Corp.
The stained sections were examined with a light microscope using a 25× and 40× objective lenses and 10× eyepiece. Evaluation of lectin binding required the use of several approaches. First, the binding specificity was confirmed by coincubation of lectin with hapten sugars known to bind the lectin maximally. Maximum labeling of the brown reaction product was arbitrarily assigned a score 4^+. See Boland, C. R., Bresalier, R. S., and Roberts, J. A. "Assay of lectin binding sites in colonic cancer-associated mucins: comparison of fluorescence microscopy with a quantitative chromatographic technique." J. Histochem. Cytochem., 36: 1329-1334, 1988. No staining of the slide compared to control sections (i.e., in which lectin was omitted from the staining procedure) was assigned a score of 0. Intermediate scores of 1^+ (trace or weak staining definitely not seen on control slides) and 2+3^+ (stronger staining, but definitely less than maximal) were assigned. […] See Boland. This method was used to confirm the binding specificity to known "positive" tissues and to evaluate changes in lectin binding after neuraminidase treatment.
Specimens of well differentiated colonic cancers were incubated with biotinylated lectins. Working concentrations on the slide were 10 μg/ml for ACA and 20 μg/ml for PNA. The hapten sugars galactose (Gal), N-acetylgalactosamine (GalNAc), and Galβ1,3GalNAc-α-O-benzyl (T-antigen) were used to inhibit lectin binding to the tissues. […]

hog lymphocytes = details: cited from earlier work
[4] = system: normal colonic epithelium; type: binding, human; parameters: key to Labeling of normal colon in the tissue survey / Staining (global score 0-3+): 4^+: Maximum labeling of the brown reaction product; 0: No staining of the slide compared to control sections; 1^+: trace or weak staining definitely not seen on control slides; 2+3^+: stronger staining, but definitely less than maximal

With amaranthin the “% Control reactivity” value ([1]; 5 mM EDTA) was 100%, the “% Control reactivity” value ([1]; 25 mM EDTA) was 100% and the “% Control reactivity” value ([1]; Acid dialyzed amaranthin & AOSM) was 81%. For the same substance, the “% Control reactivity” value ([1]; Acid dialyzed amaranthin & AOSM, 0.1 mM CaCl2) was 80%, the “% Control reactivity” value ([1]; Acid dialyzed amaranthin & AOSM, 0.1 mM MgCl2) was 80% and the “% Control reactivity” value ([1]; Acid dialyzed amaranthin & AOSM, 0.1 mM MnCl2) was 79%. For the same substance, the “effect of EDTA on precipitating activity, in words” value ([1]; ethylene diamine tetra acetate 5-25 mM) was “had no effect”, the “agglutination of A, B, O red blood cells, in words” value [2] was “does and No difference was observed” and the “minimum amount to completely agglutinate cells (one HU)” value ([2]; 2% red blood cell suspension, 1 hour at room temperature) was 2 µg/mL. For the same substance, the “GalNAc concentration that inhibited labeling” value [3] was at least 250 mM, the “T-antigen concentration that inhibited labeling” value [3] was at least 100 µM and the “galactose concentration required for partial inhibition of binding” value [3] was 400 mM. The “lactose concentration required for partial inhibition of binding” value [3] was 400 mM, the Labeling score ([3]; GalNAc 250 mM) was “Trace” and the Labeling score ([3]; T-antigen 100 μM) was 0. The Labeling score ([3]; T-antigen 200 μM) was 0, the Labeling score ([3]; T-antigen 400 μM) was 0 and the “mitogenicity, in words” value (hog lymphocytes) was “non-mitogenic”. For the same substance, the “Labeling of normal colon in the tissue survey” value [4] was 1^+, the “Staining (global score 0-3+)” value ([4]; biotinylated ACA 10 μg/mL or PNA 20 μg/mL) was 1^+ and the “Percent of Epithelial Units Labeled” value ([4]; lower half of crypt, mean ± SEM, listed as ACA) was 46±4% and 46%±4%. For the same substance, the “Weighted Average (0-400)” value ([4]; sum of scores of 100 epithelial units, mean ± SEM, listed as ACA) was 65±33 and the “Percent of Epithelial Units Labeled” value ([4]; upper half of crypt, mean ± SEM, listed as ACA) was 7±2% and 7%±2%.
